This note sets out measurements from ChEMBL document CHEMBL4342418, “1,2,3-Triazole-containing hybrids as potential anticancer agents: Current developments, action mechanisms and structure-activity relationships” (Eur J Med Chem, 2019).

The test system of assay [1] is A549. The experiment in a line: Antiproliferative activity against human A549 cells. It is filed as functional, cell-based.
Assay [2] relates to HeLa. Put plainly: Antiproliferative activity against human HeLa cells. It is filed as functional, cell-based.
The test system of assay [3] is HepG2. Put plainly: Antiproliferative activity against human HepG2 cells. In kind it is functional, cell-based.
In assay [4] the test system is A549/TR. The experiment in a line: Antiproliferative activity against human A549/TR cells assessed as reduction in cell viability after 72 hrs by MTT assay. It is filed as functional, cell-based. In general terms: Formazan colour is commonly taken as a measure of viable cells.
The test system of assay [5] is A549. The experiment in a line: Antitumour activity against human A549 cells xenografted in Kunming mice assessed as tumour growth inhibition at 5 mg/kg, iv bid administered and measured after week relative to control. It is filed as functional. Particulars: Mus musculus, read-out: TGI. In general terms: Xenograft models place foreign cells or tissue in a host animal.

For assay [6], the system named is A549/CDDP. The experiment in a line: Antiproliferative activity against human A549/CDDP cells assessed as reduction in cell viability after 72 hrs by MTT assay. It is filed as functional, cell-based.
The subject of assay [7] is U-251. Put plainly: Antiproliferative activity against human U251 cells assessed as reduction in cell viability after 72 hrs by MTT assay. It is filed as functional, cell-based. Particulars: U-251, 72 h.
For assay [8], the system named is HCT-116. Put plainly: Antiproliferative activity against human HCT116 cells assessed as reduction in cell viability after 72 hrs by MTT assay. In kind it is functional, cell-based. Particulars: HCT-116, 72 h.
Assay [9] has as its system A549. Put plainly: Antiproliferative activity against human A549 cells assessed as reduction in cell viability after 72 hrs by MTT assay. In kind it is functional, cell-based. Particulars: A549, 72 h.
The test system of assay [10] is HepG2. Put plainly: Antiproliferative activity against human HepG2 cells assessed as reduction in cell viability after 72 hrs by MTT assay. It is filed as functional, cell-based. Particulars: HepG2, 72 h.
The subject of assay [11] is A549. The experiment in a line: Antitumour activity against human A549 cells xenografted in Kunming mice assessed as tumour growth inhibition at 50 mg/kg, po administered and measured after week relative to control. In kind it is functional. Particulars: Mus musculus, read-out: TGI.
Assay [12] relates to A549. The experiment in a line: Antitumour activity against human A549 cells xenografted in Kunming mice assessed as tumour growth inhibition at 10 mg/kg, iv bid administered and measured after week hrs relative to control. It is filed as functional. Particulars: Mus musculus, read-out: TGI.
For assay [13], the system named is A549. The experiment in a line: Antitumour activity against human A549 cells xenografted in Kunming mice assessed as tumour growth inhibition at 20 mg/kg, iv bid administered and measured after week relative to control. It is filed as functional. Particulars: Mus musculus, read-out: TGI.
The subject of assay [14] is MDA-MB-231. The experiment in a line: cells. Particulars: Homo sapiens, MDA-MB-231, 96 h.
Description: Antiproliferative activity against human MDA-MB-231 cells assessed as reduction in cell viability incubated for 96 hrs under normaxic condition by MTT assay
Assay [15] concerns MDA-MB-231. Put plainly: cells. Particulars: Homo sapiens.
Description: Antiproliferative activity against human MDA-MB-231 cells assessed as reduction in cell viability preincubated for 24 hrs under hypoxia condition further incubated for 72 hrs under normaxic condition by MTT assay
The test system of assay [16] is MGC-803. Put plainly: Antiproliferative activity against human MGC803 cells by MTT assay. It is filed as functional, cell-based.
Assay [17] relates to SK-N-SH. Put plainly: Potency index, ratio of 5-Fluorouracil IC50 to test compound IC50 for antiproliferative activity against human SK-N-SH cells by MTT assay. In kind it is functional.
Assay [18] deals with MGC-803. Put plainly: Potency index, ratio of 5-Fluorouracil IC50 to test compound IC50 for antiproliferative activity against human MGC803 cells by MTT assay. It is filed as functional.
Assay [19] deals with HepG2. The experiment in a line: Potency index, ratio of 5-Fluorouracil IC50 to test compound IC50 for antiproliferative activity against human HepG2 cells by MTT assay. In kind it is functional.
The subject of assay [20] is SK-N-SH. Put plainly: Antiproliferative activity against human SK-N-SH cells by MTT assay. In kind it is functional, cell-based.
Assay [21] concerns HepG2. The experiment in a line: Antiproliferative activity against human HepG2 cells by MTT assay. It is filed as functional, cell-based.
Assay [22] concerns ASPC1. The experiment in a line: cells. It is filed as functional, cell-based. Particulars: Homo sapiens, ASPC1, 48 h.
Description: Antiproliferative activity against human Aspc-1 cells assessed as reduction in cell viability after 48 hrs by MTT assay
In assay [23] the test system is PC-3. Put plainly: cells. In kind it is functional, cell-based. Particulars: Homo sapiens, PC-3, 48 h.
Description: Antiproliferative activity against human PC3 cells assessed as reduction in cell viability after 48 hrs by MTT assay
Assay [24] concerns NCI-H23. Put plainly: cells. In kind it is functional, cell-based. Particulars: Homo sapiens, NCI-H23, 48 h.
Description: Antiproliferative activity against human NCI-H23 cells assessed as reduction in cell viability after 48 hrs by MTT assay
Assay [25] has as its system SW-620. Put plainly: cells. In kind it is functional, cell-based. Particulars: Homo sapiens, SW-620, 48 h.
Description: Antiproliferative activity against human SW620 cells assessed as reduction in cell viability after 48 hrs by MTT assay
Assay [26] has as its system HeLa. The experiment in a line: Antiproliferative activity against human HeLa cells assessed as reduction in cell viability after 24 hrs by MTT assay. It is filed as functional, cell-based.
The test system of assay [27] is HepG2. Put plainly: Antiproliferative activity against human HepG2 cells assessed as reduction in cell viability after 24 hrs by MTT assay. In kind it is functional, cell-based. Particulars: HepG2, 24 h.
The test system of assay [28] is SK-BR-3. The experiment in a line: Antiproliferative activity against human SKBR3 cells assessed as reduction in cell viability after 24 hrs by MTT assay. Particulars: SK-BR-3, 24 h. It is filed as functional, cell-based.

Values after ≈ are worked out from the molar mass of the structure shown.

A word on the IC50: it is the concentration at which inhibition is half-maximal. `CCCCCCc1ccc(-c2cn(Cc3cc(=O)oc4cc(O)ccc34)nn2)cc1`: the IC50 in assay [1], in [2] and in assay [3] was 8730 to 9160 nM in each case.

As to `CC(C)=CCC12OC(C)(C)C3CC(C=C4C(=O)c5c(OCc6cn(CCN7CCOCC7)nn6)cccc5OC431)C2=O` (stereo not drawn), the IC50 in assay [4], in [6], in assay [7], in [8], in [9] and in assay [10] was 310 to 3750 nM in each case. In assay [5], the inhibition in vivo at 5 mg/kg worked out at 30.9%. In addition, the inhibition in vivo at 50 mg/kg in assay [11] was found to be 66.4%. For the same compound, the inhibition in vivo at 10 mg/kg in assay [12] was 52.2%. In addition, the inhibition in vivo at 20 mg/kg in [13] is 71.3%.

With `COc1ccc(NC(=O)c2ccc(-n3cc(COc4cc(=O)oc5ccccc45)nn3)cc2)cc1OC`, the figures for the IC50 in [14] and in assay [15] were 1340 nM and 30 nM, respectively.

As for `COc1cccc(Cn2cc(CNc3ccc(C(=O)/C=C/c4cccnc4)cc3)nn2)c1`, the IC50 in [16], in assay [20] and in assay [21] was 1530 to 2730 nM each time. Further, the “Ratio IC50” value in assay [17], in [18] and in assay [19] was 2.6 - 6.7 each time.

Take `COc1ccc2c(c1)/C(=N\O)C(=O)N2Cc1cn(Cc2ccc(C(=O)NO)cc2)nn1`: the IC50 in assay [22], in assay [23], in assay [24] and in assay [25] was 1400 to 2620 nM each time.

On to `COc1ccc(-c2nnn(Cc3cc(F)ccc3F)c2-c2nc3cc(C)ccc3o2)cc1`, for which the IC50 in assay [26] was found to be 6.8 µg/mL (≈ 15.7 µM); in [27], 11.2 µg/mL (≈ 25.9 µM); in [28], 7.1 µg/mL (≈ 16.4 µM).
